# Read-outs that look alike come from different tables or passages of the source. Residues, ends and D or L forms follow the SMILES beside them. *: point of attachment. Cbz = O=C(OCc1ccccc1)*
# Experiments:
# [1] = tested on: HDAC and endogenous protease (cathepsin L) activity in BxPC3 and CFPac-1 cells; test: Live cell enzymatic assay with Boc-Lys(Ac)-AMC, release of AMC; type: cell-based; details: for Activation of substrate Boc-Lys(Ac)-AMC: substrate 25 μM, 6 hr
# Method: FIG. 5. A. HDAC assay using different substrates in BxPC3 cells (shGFP and shSki). Cells were incubated with Boc-Lys(Ac)-AMC or Ac-Arg-Gly-Lys(Ac)-AMC (25 μM) for 1 hr with DMSO (vehicle) or TSA (1 μM) as indicated, followed by cell lysis and trypsin treatment, and fluorescence measurements. Data represent mean values of triplicate measurements±standard deviation. RFU, relative fluorescent units. B. Similar experiment was done as in A but without cell lysis and trypsin treatment. Cells were incubated with the substrates for 2.5 hr.
# FIG. 6. A. Release of AMC by combined HDAC and endogenous protease-dependent enzymatic reaction in BxPC3 and CFPac-1 cells (shGFP and shSki). Cells were incubated with substrate Boc-Lys(Ac)-AMC (25 μM) for 6 hr with DMSO (vehicle), TSA (1 μM), or Z-FY-CHO (10 μM) as indicated, followed by fluorescence measurements. Data represent mean values of triplicate measurements±standard deviation. RFU, relative fluorescent units. B. Time course of AMC release in BxPC3 cells (shGFP and shSki). Each cells were incubated with Boc-Lys(Ac)-AMC (25 μM) for 2.5, 6.0, and 23 hr with DMSO (vehicle) or TSA (1 μM) as indicated.
# Tissue culture based standard HDAC assays were performed by commercially available fluorimetric HDAC assay kit (SensoLyte, AnaSpec) according to the manufacturer's instruction with modification of using 25 μM Boc-Lys(Ac)-AMC (Bachem) as substrate and measuring parameter (Ex/Em=355 nm/460 nm) for AMC. […] After 15 m incubation at room temperature, the fluorescent signal of AMC was measured by SpectraMax M5 microplate reader (Molecular Devices) at Ex/Em=355 nm/460 nm. Live cell lysyl endopeptidase assay was performed by applying the substrate 25 μM Boc-Lys-AMC (Bachem) [either with DMSO or 100 μM Z-FY-CHO (EMD)] to the overnight culture seeded from 6×10^4 cells in 100 μl medium in 96-well tissue culture plates, followed by 20 h incubation at 37° C. with 5% CO2 atmosphere, then the fluorescent signal of AMC was measured. Live cell enzymatic assay using Boc-Lys(Ac)-AMC was performed by applying the substrate 25 μM Boc-Lys(Ac)-AMC (either with DMSO, 1 μM TSA or 100 μM Z-FY-CHO) to the overnight culture seeded from 6×10^4 cells in 100 μl medium in 96-well tissue culture plates, followed by 20 h incubation at 37° C. with 5% CO2 atmosphere, then the fluorescent signal of AMC was measured. […]
# Fluorescence measurement was done at λex=390 nm and λem=460 nm for AMC. […] Cells were then lysed and the lysates incubated with exogenously added excess trypsin to cleave only those lysine residues that are de-acetylated and activate fluorescence. […]
# [2] = tested on: BXPC3 cells; test: MTS cell viability assay with or without TSA; type: cell-based, human; details: 20 μM, 72 hr, TSA 50 nM
# Method: FIG. 25. Selective cytotoxicity by BKAc-5FCR. Human pancreatic BXPC3 cells were treated with DMSO (vehicle), BKAc-5FCR (20 μM), or 5FCR (20 μM) for 72 hr with or without TSA (50 nM) followed by MTS cell viability assay. Representative phase contrast images of cells treated with DMSO (vehicle) or BKAc-5FCR (20 μM) for 72 hr with or without TSA (50 nM) are shown.
# [3] = tested on: non-malignant Caco-2 cells; test: MTS cell viability assay, Caco-2; type: cell-based, human; details: parental Puro, MTS, 3 d
# Method: FIG. 13. Inhibition of cell viability by BKAc-Puro is presented in dose-response curve format for the same cell lines as in FIG. 8. The cell lines were treated with DMSO or the indicated doses of agent (4.22, 8.44, 16.9, 33.8, 67.5, or 135 μM) for 5 d followed by MTS assay. Data represent mean values of triplicate measurements±s.d. (n=3). IC50 values were fit by logistic regression.
# FIG. 14. Inhibition of cell viability by parental Puro. The cell lines were treated with the indicated doses of Puro (0, 1.1, 2.1, 4.2, or 8.4 μM) for 3 d followed by MTS assay. Data represent mean values of triplicate measurements±s.d.
# Cell number was determined by cell counting using improved Neubauer hemacytometer. Cell viability was calculated as the number of viable cells divided by the total number of cells using Trypan Blue Stain (Invitrogen) to distinguish non-viable cells. Data were obtained from duplicated samples with quadruplicate measurements. MTS based cell viability assay was performed using CellTiter 96 Aqueous Cell Proliferation Assay (Promega) according to the manufacturer's instruction. Either 1 μl of DMSO alone or variable concentrations of BKAc-Puro or Puro in DMSO were added to the cell lines seeded at 5×10^4 cells per well in 96-well tissue culture plates in 100 μl of the growth medium, followed by 3-5 d incubation at 37° C. with 5% CO2 atmosphere. Then 20 μl of the MTS reagent was added to each well. After additional 2-3 h incubation, the absorbance of the formazan at 490 nm was measured by the microplate reader. Percent cell viability was expressed relative to the wells containing cells treated with DMSO alone. Data were obtained from triplicate measurements. […] Determination of non-viable cells using PI staining was performed by adding 1 μg/ml of PI solution (Sigma) to the cell culture, prior to the examination under fluorescence microscopy (Axiovert 3, Carl Zeiss) through a×32 objective equipped with a digital imaging processor (Infinity 3, Lumenera).
# [4] = tested on: Puro-incorporated proteins in HCT116, HT29, CCD841-CoN and Caco-2 cells; test: Immunoblotting of Puro-incorporated proteins in cell lysates; type: cell-based, human; details: Puro 2.1 μM, 16 h, with or without TSA 0.5 μM
# Method: (§1) FIG. 27. Levels of Puro-incorporated proteins in the cells were monitored by immunoblotting. Indicated cell lines were treated either with vehicle control DMSO or Boc-KAc-Puro (16.9 μM) in the presence or absence of TSA (0.5 μM) for 20 h, followed by preparation of cell lysates. The lower panel (anti-α-Tubulin) serves as a loading control.
# as §1, with “28.” for “27.”, “Puro (2.1” for “Boc-KAc-Puro (16.9”, “16” for “20”, “lysates. […]” for “lysates.”
# Cultured cells or tissue samples were sonicated in RIPA lysis buffer (1% NP-40, 0.1% SDS, 50 mM Tris-HCl pH 7.4, 150 mM NaCl, 0.5% sodium deoxycholate, 1 mM EDTA) supplemented with PMSF and protease inhibitor cocktail (Roche) on ice followed by clarification. Protein lysates were separated on sodium dodecyl sulfate-polyacrylamide gels and transferred onto nitrocellulose membranes (Whatman). The primary antibodies used were anti-puromycin (3RH11, KeraFAST) and anti-α-tubulin (Sigma-Aldrich). Proteins of interest were detected with anti-mouse secondary antibody by chemiluminescence (ECL Kit, GE Healthcare Life Sciences).
# [5] = single administration, cited from earlier work
# [6] = target: T1, lysyl endopeptidase activity (CTSL) in live cells (Homo sapiens, UniProt P07711); test: Live cell lysyl endopeptidase assay with Boc-Lys-AMC; type: cell-based; details: Z-FY-CHO 100 μM, substrate 25 μM, 20 h
# T1 construct: endogenous in cells; host or cells: Panel of cultured lines: Caco-2, COGA-10, HCA-7, HT29, HCT116, CCD841-CoN, MiaPaca-2, BXPC-3, HepG2, HeLa (human) and Eph4 (mouse)
# Method: FIG. 2. Comparative live cell lysyl endopeptidase activity of the same cell lines as in FIG. 1 using substrate Boc-Lys-AMC either with vehicle control DMSO or Z-FY-CHO (100 μM). Data represent mean values of triplicate measurements±s.d. RFU, relative fluorescent units.
# Tissue culture based standard HDAC assays were performed by commercially available fluorimetric HDAC assay kit (SensoLyte, AnaSpec) according to the manufacturer's instruction with modification of using 25 μM Boc-Lys(Ac)-AMC (Bachem) as substrate and measuring parameter (Ex/Em=355 nm/460 nm) for AMC. Basically, HDAC substrate 25 μM Boc-Lys(Ac)-AMC [either with DMSO or 1 μM TSA (Sigma)] was applied to the overnight culture seeded from 6×10^4 cells in 100 μl medium in 96-well tissue culture plates, followed by 2 to 3 h incubation at 37° C. with 5% CO2 atmosphere. […] After 15 m incubation at room temperature, the fluorescent signal of AMC was measured by SpectraMax M5 microplate reader (Molecular Devices) at Ex/Em=355 nm/460 nm. Live cell lysyl endopeptidase assay was performed by applying the substrate 25 μM Boc-Lys-AMC (Bachem) [either with DMSO or 100 μM Z-FY-CHO (EMD)] to the overnight culture seeded from 6×10^4 cells in 100 μl medium in 96-well tissue culture plates, followed by 20 h incubation at 37° C. with 5% CO2 atmosphere, then the fluorescent signal of AMC was measured. […]
# [7] = tested on: BxPC3 cells (shGFP); test: MTT cell viability assay, BxPC3 shGFP; type: cell-based; details: Homo sapiens, BXPC-3, 72 hr
# Method: (§2) FIG. 24. Effect of the prodrug on cell viability of BxPC3 cells (shGFP and shSki). Cells were treated with the indicated dose of drugs (BKAc-5FCR or 5FCR) for 72 hr followed by MTT assay. Data represent mean values of triplicate measurements±standard deviation. IC50 values were derived from nonlinear curve fit of the dose response data using an outlier's exclusion, variable slope model (GraphPad Prism software). All values are means of at least two independent experiments.
# (§3) The in vitro efficacy of the compounds in a series of BxPC3 and CFPac-1 derivatives with reduced Class I HDAC activity following Ski knockdown (shSki), HDAC3 knockdown and control (shGFP) was assessed. The growth inhibitory/viability effects of the compounds (IC50 value, the concentration resulting in 50% growth inhibition) on the various cell lines were determined by dose response curve analysis (GraphPad Prism software) of MTT [3-(4,5dimethylthiazol-2-yl)-2,5-diphenyl-tetrazolium bromide] cell viability assay. If the prodrugs are activated in an HDAC-dependent manner, the cells with reduced HDAC activity would be predicted to be more resistant to the prodrug treatment than control cells, while the effect of free parental drugs on both cells would be expected to be similar.
# [8] = tested on: BxPC3 cells (shSki); test: MTT cell viability assay, BxPC3 shSki; type: cell-based; details: Homo sapiens, BXPC-3, 72 hr
# Method: as §2, §3
# [9] = tested on: cells; test: 72 hr in vitro cytotoxicity with TSA; type: cell-based; details: TSA 1 μM
# Text: The prodrugs that are synthesized may have some basal level of cytotoxicity before they are activated by HDAC3. One way to determine the IC50 values of the uncleaved forms of the prodrugs would be to use HDAC inhibitors both in vitro and in vivo. […] […] […] For example, among available HDAC inhibitors, SAHA (Vorinostat), a FDA approved pharmaceutical HDAC inhibitor (Bradner, J. E. et al. 2010), is known to inhibit all of these HDACs with much lower cytotoxicity than TSA. Thus, SAHA is an alternative HDAC inhibitor for the prodrug evaluation as well. By comparing the prodrug ICo values for cytotoxicity under conditions of HDAC inhibition with those values where HDACs are active we are able to provide data on the HDAC dependence of our new class of prodrugs.
# T1 sequence (P07711 114-288 limits assumed): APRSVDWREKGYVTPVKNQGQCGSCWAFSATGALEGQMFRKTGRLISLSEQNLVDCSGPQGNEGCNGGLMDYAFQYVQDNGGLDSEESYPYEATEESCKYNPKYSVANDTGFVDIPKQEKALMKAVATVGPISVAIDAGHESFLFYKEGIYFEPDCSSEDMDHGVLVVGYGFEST
# T1 sequence (P07711 292-333 limits assumed): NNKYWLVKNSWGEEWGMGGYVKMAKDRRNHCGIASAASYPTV
structure (smiles),measurement,setting,value
CC(=O)NCCCC[C@H](NC(=O)OC(C)(C)C)C(=O)Nc1ccc2c(C)cc(=O)oc2c1 [Boc-Lys(Ac)-AMC],Time course of AMC release,"[1]; BxPC3, 25 μM, over 20 hr",released linearly
same,Activation in live cells relative to total HDAC activity,"[1]; BxPC3 live cells, 25 μM, 2.5 hr, without lysis and trypsin",approximately 50%
"CC(=O)NCCCCC(NC(=O)OC(C)(C)C)C(=O)Nc1nc(=O)n([C@@H]2O[C@H](CO)[C@@H](O)[C@H]2O)cc1F (stereo partly drawn) [BKAc-5FCR, t-butyl (6-acetamido-1-((1-((2R,3R,4S,5R)-3,4-dihydroxy-5-(hydroxymethyl)tetrahydrofuran-2-yl)-5-fluoro-2-oxo-1,2-dihydropyrimidin-4-yl)amino)-1-oxohexan-2-yl) carbamate]",Cytotoxic effect in the presence of HDAC inhibitor TSA,[2],substantially compromised
"COc1ccc(C[C@H](N)C(=O)N[C@H]2[C@@H](O)[C@H](n3cnc4c(N(C)C)ncnc43)O[C@@H]2CO)cc1 [Puro, puromycin]",Effect on cell viability,[3],effective
same,Puro incorporation between cell lines regardless of TSA treatment,[4],no difference
same,LD50,[5]; intraperitoneally,580 mg/kg
same,LD50,[5]; intravenously,335 mg/kg
same,LD50,[5]; orally,720 mg/kg
O=C[C@H](Cc1ccc(O)cc1)NC(=O)[C@H](Cc1ccccc1)NC(=O)OCc1ccccc1 [Z-FY-CHO] (Cbz-Phe-Tyr-aldehyde),Release of AMC,[6],significantly blocked
same,Activation of substrate Boc-Lys(Ac)-AMC,[1]; Z-FY-CHO 10 μM,completely abrogated
"Nc1nc(=O)n([C@@H]2O[C@H](CO)[C@@H](O)[C@H]2O)cc1F [5FCR, 5-fluorocytidine]",IC50,[7],1300 nM
same,IC50,[8],1200 nM
"CC(/C=C/C(=O)NO)=C\[C@@H](C)C(=O)c1ccc(N(C)C)cc1 [TSA, Trichostatin A]",Activation of substrate Boc-Lys(Ac)-AMC,[1]; TSA 1 μM,completely inhibited activation
same,Cytotoxicity,[9],cytotoxic effect

# Source: patent US20160184459A1, “CANCER CELL SPECIFIC IMAGING PROBES AND METHODS OF USE” (THE RESEARCH FOUNDATION FOR THE STATE UNIVERSITY OF NEW YORK, priority 2013, published 2016)
